Data reported in PubChem BioAssay (NCI).
Where “and” joins values, the source holds several entries; their conditions need not be identical. Identical values can stand only once.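 Following 48 hours of exposure in 96-well plates, responses at five concentrations were used to interpolate endpoints linearly. The concentration for 50% growth inhibition is given as GI50. TGI is the concentration that stops growth completely.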

How the values were obtained:
Assay in all cases: NCI tumour cell line growth inhibition, 48 h
UACC-62 melanoma = tested on: UACC-62 melanoma
DMS 114 small cell lung = tested on: DMS 114 small cell lung
LXFL 529 NSCLC = tested on: LXFL 529 NSCLC
SNB-75 CNS = tested on: SNB-75 CNS
NCI-H226 lung = tested on: NCI-H226 lung
RXF 393 renal = tested on: RXF 393 renal
HOP-62 NSCLC = tested on: HOP-62 NSCLC
KM20L2 colon = tested on: KM20L2 colon
786-0 renal = tested on: 786-0 renal
SK-MEL-5 melanoma = tested on: SK-MEL-5 melanoma

SMILES	TGI (UACC-62 melanoma)	TGI (DMS 114 small cell lung)	TGI (LXFL 529 NSCLC)	TGI (SNB-75 CNS)	TGI (NCI-H226 lung)	TGI (RXF 393 renal)	TGI (HOP-62 NSCLC)	TGI (KM20L2 colon)	TGI (786-0 renal)	TGI (SK-MEL-5 melanoma)	GI50 (UACC-62 melanoma)	GI50 (SNB-75 CNS)
CCc1nc2c(O)ccc(O)c2nc1C	27.5 µM	36.1 µM	15.8 µM	37.6 µM	29.9 µM	25.5 µM	32.3 µM	34 µM	26.3 µM	31.2 µM		
CCOC(C)OCC#CCCBr (configuration not stated)	> 100 µM	> 100 µM	> 100 µM	> 100 µM		> 100 µM	> 100 µM	> 100 µM	> 100 µM	> 100 µM		
O=C1CCC2(c3ccc(F)cc3)Nc3ccccc3N12 (configuration not stated)	> 100 µM	> 100 µM	> 100 µM	> 100 µM	> 100 µM	> 100 µM	> 100 µM	> 100 µM	> 100 µM	> 100 µM		
Cc1c(/C=C2\CC/C(=C\c3[nH]c(C(=O)OC(C)(C)C)c(C)c3C)C2=O)[nH]c(C(=O)OC(C)(C)C)c1C	> 100 µM	> 100 µM	> 100 µM	> 100 µM	> 100 µM	> 100 µM	> 100 µM	> 100 µM	> 100 µM	> 100 µM		
COc1cc2c(cc1OC)C1c3ccccc3C(C#N)(C2)N(C(=O)c2ccccc2)C1O (configuration not stated)	> 100 µM	> 100 µM	> 100 µM	> 100 µM	> 100 µM	> 100 µM	> 100 µM	> 100 µM	> 100 µM	90 µM		
O=c1/c(=C/c2cccc3ccccc23)sc2nc3ccccc3n12	> 100 µM	> 100 µM	> 100 µM	> 100 µM	> 100 µM	> 100 µM	> 100 µM	> 100 µM	> 100 µM	> 100 µM		
Cc1c(Cl)cccc1NC(=O)CC1Sc2ccccc2NC1=O (configuration not stated)	77.5 µM and > 100 µM	> 100 µM	> 100 µM	19 µM and 36.5 µM	41.7 µM and 54.8 µM	28 µM and 41.6 µM	42.3 µM and 31.1 µM	> 85.9 µM and 55 µM	50.9 µM and 31.7 µM	67.7 µM and > 100 µM	15.2 µM and 38.6 µM	4.95 µM and 14.5 µM
Cc1c(Cl)ccc2c1NC(=O)C2(O)CC(=O)c1ccc(Cl)cc1Cl (configuration not stated)	> 50 µM	> 50 µM	> 50 µM	> 41.3 µM	> 50 µM	48.9 µM	> 50 µM	> 50 µM	> 50 µM	> 50 µM		
CN(C)CCC1(C2=CCCC2)CC/C(=C\c2ccc3c(c2)OCO3)C1=O (configuration not stated)	39.5 µM	32.7 µM	25.5 µM			21.3 µM		28.6 µM	26.9 µM	27.6 µM		
COc1nc(OC)c2c(=O)oc(-c3ccccc3)cc2n1	> 100 µM	> 100 µM	> 100 µM	> 100 µM	> 100 µM	> 100 µM		> 100 µM	> 100 µM	> 100 µM		
